Test results from ChEMBL document CHEMBL1201862, “PubChem BioAssay data set” (2004).
Activity calls are given as the source filed them.

What was measured:
[1] = system: HeLa; assay: HeLa cell cytotoxicity, dose response, cytotoxicity control for MITF activator project, CellTiter-Glo luminescence, cherry-pick samples (AID 540259); format: functional, cell-based; conditions: Homo sapiens
[2] = molecular target: T1, Polyadenylate-binding protein 1 (Homo sapiens, UniProt P11940); assay: PABP1 MLLE–PAM2 interaction inhibitors, dose response, miRNA deadenylation inhibitor project, biochemical, fluorescence polarization, Cy5-PAM2 peptide, secondary (AID 602260); format: functional; conditions: read-out: IC50_Mean
[3] = molecular target: T1, Polyadenylate-binding protein 1; assay: PABP1 MLLE–PAM2 binding inhibitor potency, dose response, biochemical, fluorescence polarization, FITC-PAM2 peptide (AID 602259); format: functional; conditions: read-out: IC50_Mean
[4] = growth suppression of PTEN-null colon cells, dose response, cell-based, HCT116 PTEN knockout (AID 1047); format: functional;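 also: HCT116 colon tumor cells with PTEN knocked out; cells exposed to compound for 60 hours before readout; potency for loss of cell viability measured by luminescence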
[5] = growth suppression of beta-catenin-knockout colon cells, dose response, cell-based, HCT116, human colon tumor (AID 1045); format: functional;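 also: HCT116 colon tumor cells with beta catenin knocked out; cells exposed to compound for 60 hours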
[6] = molecular target: T2, Aminopeptidase N (Plasmodium falciparum FcB1/Columbia, UniProt O96935); assay: P. falciparum M1AAP inhibitors, biochemical, fluorogenic H-Leu-NHMec substrate, 1536-well (AID 1445); design: species or system Plasmodium falciparum 3D7, 3D7
T2 sequence (O96935 whole entry): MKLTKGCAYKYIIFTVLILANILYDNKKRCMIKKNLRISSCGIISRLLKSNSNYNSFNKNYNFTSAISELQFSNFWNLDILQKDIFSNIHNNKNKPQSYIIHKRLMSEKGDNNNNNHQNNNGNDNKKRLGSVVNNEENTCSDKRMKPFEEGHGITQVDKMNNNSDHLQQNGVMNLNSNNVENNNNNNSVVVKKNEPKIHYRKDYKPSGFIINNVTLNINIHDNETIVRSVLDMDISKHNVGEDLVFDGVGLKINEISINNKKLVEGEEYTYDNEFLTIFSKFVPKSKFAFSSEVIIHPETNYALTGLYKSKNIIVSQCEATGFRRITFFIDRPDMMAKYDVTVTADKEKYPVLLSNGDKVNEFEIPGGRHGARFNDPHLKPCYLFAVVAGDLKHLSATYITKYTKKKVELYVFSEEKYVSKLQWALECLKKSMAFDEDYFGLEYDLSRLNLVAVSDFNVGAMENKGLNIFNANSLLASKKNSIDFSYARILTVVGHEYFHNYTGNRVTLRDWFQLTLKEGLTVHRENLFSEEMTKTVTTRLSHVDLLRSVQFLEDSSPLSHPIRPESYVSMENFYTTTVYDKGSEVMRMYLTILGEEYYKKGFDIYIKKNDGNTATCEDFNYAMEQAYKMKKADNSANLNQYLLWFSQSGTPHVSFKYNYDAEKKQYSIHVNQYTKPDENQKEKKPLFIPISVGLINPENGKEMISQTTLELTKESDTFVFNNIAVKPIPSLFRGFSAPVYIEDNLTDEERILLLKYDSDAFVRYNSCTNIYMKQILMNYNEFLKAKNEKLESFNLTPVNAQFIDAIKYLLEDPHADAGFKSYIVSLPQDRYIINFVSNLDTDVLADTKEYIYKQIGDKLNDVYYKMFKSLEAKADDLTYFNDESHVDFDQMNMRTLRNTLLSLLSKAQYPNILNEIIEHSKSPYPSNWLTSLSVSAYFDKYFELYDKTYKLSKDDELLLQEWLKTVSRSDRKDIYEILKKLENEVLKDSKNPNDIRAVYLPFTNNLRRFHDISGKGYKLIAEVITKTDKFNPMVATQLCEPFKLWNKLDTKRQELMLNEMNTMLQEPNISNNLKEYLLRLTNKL

[7] = molecular target: Induced myeloid leukemia cell differentiation protein Mcl-1 (Homo sapiens, UniProt Q07820); format: functional
[8] = molecular target: T3, High affinity choline transporter 1 (Homo sapiens, UniProt Q9GZV3); assay: CHT inhibitors, dose response, cell-based, 5-point CRC, membrane potential dye (AID 504840); format: functional
T3 sequence (Q9GZV3 whole entry): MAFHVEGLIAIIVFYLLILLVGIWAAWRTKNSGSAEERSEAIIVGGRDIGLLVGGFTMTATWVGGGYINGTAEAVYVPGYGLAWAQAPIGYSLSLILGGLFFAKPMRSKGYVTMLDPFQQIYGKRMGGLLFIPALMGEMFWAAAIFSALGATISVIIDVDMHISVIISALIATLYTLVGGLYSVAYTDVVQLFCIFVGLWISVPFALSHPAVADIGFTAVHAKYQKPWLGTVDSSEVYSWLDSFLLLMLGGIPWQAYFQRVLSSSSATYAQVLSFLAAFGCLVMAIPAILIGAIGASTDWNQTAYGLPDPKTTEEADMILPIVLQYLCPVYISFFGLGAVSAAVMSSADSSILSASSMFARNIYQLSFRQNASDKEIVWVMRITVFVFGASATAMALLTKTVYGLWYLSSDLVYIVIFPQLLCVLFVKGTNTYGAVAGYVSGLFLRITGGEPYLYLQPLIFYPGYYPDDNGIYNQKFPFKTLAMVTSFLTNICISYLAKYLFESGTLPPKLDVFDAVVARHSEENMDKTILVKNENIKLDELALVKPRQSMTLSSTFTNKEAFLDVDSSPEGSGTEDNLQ

[9] = THP-1 cell cytotoxicity, dose response, cytotoxicity control for non-replicating M. tuberculosis project (AID 489025); format: functional
[10] = cells; format: functional
[11] = NIH-3T3 fibroblast cytotoxicity, dose response, cytotoxicity control, cell-based, fluorescence, Alamar Blue, secondary assay (AID 2327); format: functional;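 also: NIH-3T3 mouse fibroblasts cultured with fluconazole at 8 µg/mL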
[12] = C. albicans growth with fluconazole, confirmation, fluorescence, retest (AID 2467); format: functional, cell-based
[13] = molecular target: T4, Protein skinhead-1 (Caenorhabditis elegans, UniProt P34707); format: functional
T4 sequence (P34707 whole entry): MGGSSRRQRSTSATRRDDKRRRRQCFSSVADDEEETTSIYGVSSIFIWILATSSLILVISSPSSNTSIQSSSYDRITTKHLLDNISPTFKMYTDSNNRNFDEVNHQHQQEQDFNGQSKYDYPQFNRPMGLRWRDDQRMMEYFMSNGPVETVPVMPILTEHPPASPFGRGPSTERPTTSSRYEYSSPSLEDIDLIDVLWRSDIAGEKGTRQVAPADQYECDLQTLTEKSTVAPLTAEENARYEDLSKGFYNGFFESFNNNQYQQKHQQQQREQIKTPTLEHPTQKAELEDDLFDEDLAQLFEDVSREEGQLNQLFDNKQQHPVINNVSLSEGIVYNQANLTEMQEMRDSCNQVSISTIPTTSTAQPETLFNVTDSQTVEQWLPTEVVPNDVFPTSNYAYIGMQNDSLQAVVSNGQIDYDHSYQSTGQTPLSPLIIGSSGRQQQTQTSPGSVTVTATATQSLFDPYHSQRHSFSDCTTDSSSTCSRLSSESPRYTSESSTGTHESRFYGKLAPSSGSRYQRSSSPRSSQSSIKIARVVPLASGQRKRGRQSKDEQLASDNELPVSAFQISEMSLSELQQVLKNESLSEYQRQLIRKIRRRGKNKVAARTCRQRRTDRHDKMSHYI

[14] = molecular target: T5, Rac GTPase-activating protein 1 (Homo sapiens, UniProt Q9H0H5); assay: MgcRacGAP GTPase-activating activity inhibitors, confirmation, biochemical, ADP Hunter fluorescence, primary and confirmatory (AID 624330); format: functional
T5 sequence (Q9H0H5 whole entry): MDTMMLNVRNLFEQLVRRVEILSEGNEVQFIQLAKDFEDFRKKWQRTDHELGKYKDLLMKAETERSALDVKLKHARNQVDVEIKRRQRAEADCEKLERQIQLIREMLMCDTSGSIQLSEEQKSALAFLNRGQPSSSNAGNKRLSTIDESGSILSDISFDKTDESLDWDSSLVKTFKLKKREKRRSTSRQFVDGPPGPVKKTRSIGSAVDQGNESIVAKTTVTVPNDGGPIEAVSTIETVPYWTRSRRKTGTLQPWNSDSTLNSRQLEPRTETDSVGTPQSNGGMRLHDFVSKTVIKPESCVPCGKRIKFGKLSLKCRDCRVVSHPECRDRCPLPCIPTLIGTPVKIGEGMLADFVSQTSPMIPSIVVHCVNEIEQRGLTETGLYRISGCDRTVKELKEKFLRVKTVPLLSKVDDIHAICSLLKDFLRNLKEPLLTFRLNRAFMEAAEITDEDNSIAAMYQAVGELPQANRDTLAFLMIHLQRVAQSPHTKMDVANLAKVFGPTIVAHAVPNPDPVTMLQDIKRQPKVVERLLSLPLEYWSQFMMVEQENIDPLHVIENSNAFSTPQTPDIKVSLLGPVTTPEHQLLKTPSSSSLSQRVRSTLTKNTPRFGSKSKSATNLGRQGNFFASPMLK

[15] = A549 cell cytotoxicity, dose response, cytotoxicity control, plate reader, cherry-pick, antagonist series (AID 743412); format: functional, cell-based
[16] = inhibitors of HIV Env-driven cell fusion, dose response, cherry-pick (AID 652057); format: functional, cell-based
[17] = ZM109 Env clade C HIV-1 fusion inhibitors, dose response, HeLa effector, CEM target cells, luciferase, cherry-pick (AID 652058); format: functional, cell-based

Chain of Induced myeloid leukemia cell differentiation protein Mcl-1 (Q07820 whole entry): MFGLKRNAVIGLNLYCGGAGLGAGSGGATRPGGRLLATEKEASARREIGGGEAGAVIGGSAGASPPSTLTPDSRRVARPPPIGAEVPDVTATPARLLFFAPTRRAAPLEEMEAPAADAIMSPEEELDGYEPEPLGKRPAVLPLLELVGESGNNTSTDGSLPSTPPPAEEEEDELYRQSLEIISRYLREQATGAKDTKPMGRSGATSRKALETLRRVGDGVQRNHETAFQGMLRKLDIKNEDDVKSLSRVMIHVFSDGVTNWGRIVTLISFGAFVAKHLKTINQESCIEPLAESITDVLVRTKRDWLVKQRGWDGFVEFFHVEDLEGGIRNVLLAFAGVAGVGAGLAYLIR
T1 sequence (P11940 whole entry): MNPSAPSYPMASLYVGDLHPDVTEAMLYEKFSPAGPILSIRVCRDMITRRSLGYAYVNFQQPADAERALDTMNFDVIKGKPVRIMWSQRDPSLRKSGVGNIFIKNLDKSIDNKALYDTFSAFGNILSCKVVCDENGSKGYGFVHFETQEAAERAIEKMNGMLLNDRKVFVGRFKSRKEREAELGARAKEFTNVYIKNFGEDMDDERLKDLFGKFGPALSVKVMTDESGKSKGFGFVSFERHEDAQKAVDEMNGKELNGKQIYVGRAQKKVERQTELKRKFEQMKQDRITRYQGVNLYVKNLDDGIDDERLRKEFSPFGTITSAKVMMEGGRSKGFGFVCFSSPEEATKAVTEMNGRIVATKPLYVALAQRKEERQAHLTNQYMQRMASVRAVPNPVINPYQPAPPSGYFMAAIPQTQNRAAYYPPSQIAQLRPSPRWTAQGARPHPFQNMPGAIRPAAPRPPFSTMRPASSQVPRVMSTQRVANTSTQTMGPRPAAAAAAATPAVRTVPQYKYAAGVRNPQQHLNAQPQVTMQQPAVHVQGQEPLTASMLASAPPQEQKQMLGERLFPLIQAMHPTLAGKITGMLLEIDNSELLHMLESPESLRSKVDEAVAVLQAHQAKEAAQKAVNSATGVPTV

## COC(=O)C(C)N1C(=O)S/C(=C/c2cc(C)n(C(C)C)c2C)C1=O (stereo not given)
[1]
  AC50: 52.9 µM (active)

## CC1CCCCC1NC(=O)CN1C(=O)c2cccc(N)c2C1=O (stereo not given)
[2]
  IC50: > 66 µM (inactive)
[3]
  IC50: 35.5 µM (inactive)

## CSc1ccccc1NC(=O)Nc1ccc(Cl)cc1
[4]
  EC50: 68.5 µM (active)
[5]
  EC50: 46.5 µM (active)

## COc1ccc(C(C(=O)NC2CCCCC2)N(CC2CCCO2)C(=O)C2COc3ccccc3O2)cc1OC (stereo not given)
[4]
  EC50: 12.7 µM (active)
[5]
  EC50: 19.5 µM (active)

## COC(=O)CN1C(=O)C2(C(C#N)=C(N)Oc3[nH]nc(-c4cccs4)c32)c2ccccc21 (stereo not given)
[6]
  IC50: 36.7 µM (active)

## CCOc1ccccc1C(=O)N1CCN=C1SCc1cccnc1
[2]
  IC50: > 66 µM (inactive)
[3]
  IC50: > 66 µM (inactive)

## COc1ccc(-c2ccc3ccccc3n2)cc1OC
[1]
  AC50: 46.8 µM (active)

## COc1ccc(-c2nn(CCC(=O)O)cc2/C=C2\SC(N)=NC2=O)cc1OC
[7]
  IC50: 4.63 µM (active)

## CN1CCC(N(C)c2nc(-c3ccc([N+](=O)[O-])cc3)nc3ccccc23)CC1
[4]
  EC50: 5.17 µM (active)
[5]
  EC50: 4.29 µM (active)
[7]
  IC50: 3.99 µM (active)

## COc1ccccc1C(=O)/C=C/c1ccc(N2CCCCC2)c([N+](=O)[O-])c1
[4]
  EC50: 5.52 µM (active)
[5]
  EC50: 4.48 µM (active)

## COC(=O)c1ccc(Oc2nc(C(N)=O)cc(-c3ccccc3)n2)cc1
[4]
  EC50: 29.9 µM (active)

## O=C(CSc1n[nH]c(-c2ccccc2)n1)Nc1ncc(Br)cc1Br
[8]
  IC50: 14.5 µM (active)

## Cc1cc(OC(C)C(=O)Nc2ccc(S(=O)(=O)Nc3onc(C)c3C)cc2)cc(C)c1Cl (stereo not given)
[8]
  IC50: 3.98 µM (active)

## Nc1ccc2nc3c(c(Cl)c2c1)CCCC3
[9]
  CC50: 2.79 µM (active)
[10]
  IC50: 13.7 µM (active)

## COCC(C)n1c(SCC(=O)Nc2nccs2)nc2ccccc2c1=O (stereo not given)
[2]
  IC50: > 66 µM (inactive)
[3]
  IC50: > 66 µM (inactive)

## CC(C)OCCCNC(=O)c1sc(=S)n(C)c1N
[2]
  IC50: > 66 µM (inactive)
[3]
  IC50: > 66 µM (inactive)

## CSC(=Nc1ccc(Cl)cc1)NS(=O)(=O)c1cccs1
[11]
  EC50: > 150 µM (inactive)
[12]
  EC50: 1.15 µM (active)

## c1ccc2sc(SCc3ccc(-c4nnco4)cc3)nc2c1
[9]
  CC50: > 40 µM (active)
[10]
  IC50: 27.4 µM (active)
[13]
  IC50: 32.7 µM (active)

## Cc1cccc(C)c1OCc1cc(C(=O)N2CCN(C3CCCC3)CC2)no1
[8]
  IC50: 19.1 µM (active)
[13]
  IC50: > 100 µM (inactive)

## CCc1nc(Nc2ccc(N3CCN(C(C)=O)CC3)cc2)c2oc3ccccc3c2n1
[7]
  IC50: 5.67 µM (not active)
[14]
  IC50: 36.8 µM (active)

## CN(C(=S)NC(=O)c1ccccc1)c1c(N)n(Cc2ccccc2)c(=O)[nH]c1=O
[2]
  IC50: > 66 µM (inactive)
[3]
  IC50: > 66 µM (inactive)

## COC(=O)[C@@]1(C)[C@H]2C(=O)N(Cc3ccccc3)C(=O)[C@H]2[C@H]2CN=C(SCC(=O)c3ccccc3)N21
[2]
  IC50: > 66 µM (inactive)
[3]
  IC50: > 66 µM (inactive)

## CC1=C(C(=O)Nc2cccc(C(=O)NC3CCCCC3C)c2)SCCO1 (stereo not given)
[8]
  IC50: 13.2 µM (active)

## Cc1ccc(S(=O)(=O)N(C)C[C@H]2Oc3cc(Br)ccc3S(=O)(=O)N([C@H](C)CO)C[C@H]2C)cc1
[15]
  AC50: 33.6 µM (active)

## O=C(NCc1ccccc1)[C@@H]1CCCN1C(=O)[C@@H]1CCCN1C(=O)c1cccc2ccccc12
[16]
  AC50: 54.2 µM (active)
[17]
  AC50: 36 µM (active)

## O=C(Cc1ccc(F)cc1)N/N=C/c1ccc(-c2ccc(Cl)c(C(=O)O)c2)o1
[6]
  IC50: 22.9 µM (active)

## C/C(=N\N=C(N)N)c1ccc(Cl)cc1Cl
[8]
  IC50: 14.8 µM (active)
